Assay results reported in article PMC6290777, “Inhalation of the prodrug PI3K inhibitor CL27c improves lung function in asthma and fibrosis” (Nature Communications, 2018).

Experiments:
[1] = Pharmacokinetics of a single dose of CL27c (i.v. or p.o.); assay type: in vivo, C57BL/6J mice; conditions: for Cmax: plasma; for Cmax / AUClast / AUCtot / CL (apparent total body clearance) / F (bioavailability) / Tmax / Vss / Vz / t½ (elimination half-life): label = analyte
Procedure: (§1) To define whether this prodrug was suitable for inhaled administration, CL27c was studied to evaluate selected ADME (absorption, distribution, metabolism, and excretion) and pharmacokinetic properties. First, stability of CL27c and CL27e was analyzed in mouse plasma (Supplementary Table 1) and in mouse, rat, and human liver microsomes in the presence of nicotinamide adenine dinucleotide phosphate (NADPH; Supplementary Table 2). Next, clearance of CL27c was analyzed in C57BL/6J mice after either intra-venous or oral administration. […] Clearance of CL27c and CL27e after oral administration could not be determined due to their low bioavailability (Supplementary Table 3). Next, pharmacokinetics after inhalation was studied in C57BL/6J mice after delivering an aerosolized micro-suspension of CL27c. As shown in Table 1 and Supplementary Fig. 1b, CL27c dose-dependently reached the lungs and its metabolite CL27e was detectable after inhalation of the highest dose. […] Therefore, the inhaled prodrug promotes local effects but prevents systemic absorption of pharmacologically relevant amounts of the active compound.
Supplementary Table 3. Pharmacokinetic parameters of a single dose of CL27c […]
I.V. (10 mg/kg) P.O. (50 mg/kg) […]
Legend:I.V,. Intravenous administration; P.O., […]; Cmax, Maximum (peak) plasma drug concentration; AUClast Area under the plasma concentration-time curve from time zero to time of last measurable concentration; AUCtot Area under the plasma-concentration time curve; t½, Elimination half -life: CL, Apparent total body clearance of CL27c from plasma; Vz, Apparent volume of distribution during terminal phase; Vss, Apparent volume of distribution at steady state;F, Bioavalability.

[2] = tested on: class I PI3K; conditions: purified proteins; cited from earlier work
[3] = In vitro plasma stability; assay type: in vitro ADME, mouse
Procedure: as §1
Supplementary Table 1. In vitro plasma half-life (t1/2), (mouse plasma).
Values are the mean of at least triplicate determination in a single experiment.

[4] = Pharmacokinetics of aerosolized CL27c (analysis of lung delivery); assay type: in vivo, C57BL/6J mice; conditions: for Lung concentration / Plasma concentration: label = analyte; for detectability in plasma after inhalation: aerosolized CL27c, traces only 1 h after the highest dose
Procedure: as §1
Mice were subjected to a 30-min aerosolized treatment with CL27c or vehicle (0.5% tyloxapol/saline solution)-containing solutions, where tyloxapol was added to improve distribution in the lungs. Mice were anesthetized at 1, 3, and 6 h after aerosolized treatment, the trachea was exposed and a 1.7-mm-outside-diameter polyethylene catheter was inserted and they were subsequently sacrificed. A syringe with a needle (27 G) pretreated with heparin was inserted into the vena cava above the renal veins to collect blood. After the collection of blood, lungs were subjected to bronchoalveolar lavage with three different 500 µl aliquots of acetonitrile. At the same time blood samples were centrifuged 180× g at 22 °C for 10 min, plasma supernatant was collected and treated with 1 volume of acetonitrile to precipitate proteins. Samples were then agitated on a high-speed vortex for 2 min and further mixed using a rotary shaker for 2 min. the precipitated proteins were then pelleted by centrifugation at 10,000× g for 10 min and the supernatant was transferred in a new tube. BALF and plasma extracts were subsequently subjected to Liquid chromatography-mass spectrometry.
A Nexera LC-30AD (Shimadzu, Milan, Italy) instrument equipped with a Luna C18 150 × 2.1 mm, 3 µm particle size column (Phenomenex, Milan, Italy) was used to carry out chromatography analysis. The eluents (VWR, Milan, Italy) were acetonitrile (A) and 0.1% formic acid (B) in the following gradient conditions: from 10 to 54% of solvent A in 21 min, up to 100% of A in 2 min and re-equilibration. The injection volume was 10 µL, the flow rate was […] and the column was maintained at the temperature of 40 °C. For the chromatographic separation, an octadecylsilica column was used. The employed mass analyzer was a Q-trap used in multiple reaction-monitoring (MRM) mode. With this technique, it was possible to detect and quantify simultaneously the drug and the metabolite with high selectivity and sensitivity. A QTrap-5500 (Sciex, Milan, Italy) instrument, dressed with a Turbo Ion Spray source, was utilized to analyze samples. The source parameters were: curtain gas 30 (arbitrary units, a.u.), gas1 40 (a.u.), gas2 55 (a.u.), temperature 500 °C, ion spray voltage 5500 V, declustering potential 200 (a.u), and entrance potential 11 (a.u.). The detector was used in MRM mode and the transitions for each compound were: 446 > 418 m/z and 446 > 401 m/z for CL27C (collision energy 29, collision exit potential 26 and 28, respectively); 432 > 387 m/z and 432 > 404 m/z for CL27e (collision energy 30 and 28, collision exit potential 26 and 27, respectively).

[5] = aerosolized 2 mg/ml CL27c, 1 h from exposure
[6] = aerosolized 2 mg/ml CL27c, 3 h from exposure
[7] = aerosolized 2 mg/ml CL27c, 6 h from exposure

| Structure (SMILES) | Cmax ([1]; CL27c I.V. 10 mg/kg) [ng/mL] | AUClast ([1]; CL27c I.V. 10 mg/kg) [ng·h/mL] | AUCtot ([1]; CL27c I.V. 10 mg/kg) [ng·h/mL] | CL (apparent total body clearance) ([1]; CL27c I.V. 10 mg/kg) [mL/min/kg] | F (bioavailability) ([1]; CL27c I.V. 10 mg/kg) [%] | Tmax ([1]; CL27c I.V. 10 mg/kg) [min] | Vss ([1]; CL27c I.V. 10 mg/kg) [L/kg] | Vz ([1]; CL27c I.V. 10 mg/kg) [L/kg] | t½ (elimination half-life) ([1]; CL27c I.V. 10 mg/kg) [min] | Cmax ([1]; CL27c P.O. 50 mg/kg) [ng/mL] | AUClast ([1]; CL27c P.O. 50 mg/kg) [ng·h/mL] | AUCtot ([1]; CL27c P.O. 50 mg/kg) [ng·h/mL] | F (bioavailability) ([1]; CL27c P.O. 50 mg/kg) [%] | Tmax ([1]; CL27c P.O. 50 mg/kg) [min] | t½ (elimination half-life) ([1]; CL27c P.O. 50 mg/kg) [min] | activity in PI3K enzymatic assay [2] | Concentration in mouse plasma ([3]; time point 0 min) [ng/mL] | Concentration in mouse plasma ([3]; time point 30 min) [ng/mL] | Lung concentration [4, 5] [ng/g] | Plasma concentration [4, 5] [ng/mL] | also measured |
| --- | --- | --- | --- | --- | --- | --- | --- | --- | --- | --- | --- | --- | --- | --- | --- | --- | --- | --- | --- | --- | --- |
| COC(=O)c1cccc(Cn2cc(-c3cccc4c(=O)cc(N5CCOCC5)[nH]c34)nn2)c1 [CL27c] | 930 | 870 | 870 | 191 | 100 | 4.8 | 13.55 | 10.75 | 39 | 220 | 150 | 390 | 3.40 | 30 | 63 | inactive | 113.2 ± 12.8 | 6.2 ± 2.8 | 169.2 ± 17.7 | 1.2 ± 0.1 | Lung concentration ([4]; aerosolized 0.2 mg/ml CL27c, 1 h from exposure): 32.6 ± 5.1 ng/g; Lung concentration ([4]; aerosolized 0.2 mg/ml CL27c, 3 h from exposure): 10.9 ± 0.5 ng/g; Lung concentration ([4]; aerosolized 0.2 mg/ml CL27c, 6 h from exposure): 10.9 ± 1.8 ng/g; Lung concentration [4, 6]: 34.2 ± 5.2 ng/g; Lung concentration [4, 7]: 41.6 ± 6.5 ng/g; detectability in plasma after inhalation [4]: generally undetectable |
| O=C(O)c1cccc(Cn2cc(-c3cccc4c(=O)cc(N5CCOCC5)[nH]c34)nn2)c1 [CL27e] | 1900 | 980 | 1050 | 191 | 91 | 4.8 | 13.55 | 10.75 | 75 | 290 | 260 | 280 | 4.80 | 30 | 25.8 | potent pan-class I PI3K inhibitor, acting at nanomolar concentration | 45.3 ± 14.1 | 43.6 ± 7.4 | 4.5 ± 1.0 | 1.34 ± 0.62 | peak plasma concentration relative to CL27c ([1]; 5 min after i.v. administration of CL27c): twice more abundant than CL27c; Lung concentration [4, 6]: 0.1 ± 0.1 ng/g; Plasma concentration [4, 6]: <1 ng/mL; Lung concentration [4, 7]: 0.5 ± 0.2 ng/g; Plasma concentration [4, 7]: <1 ng/mL; detectability in plasma after inhalation [4]: generally undetectable |
